How the values were obtained:
B. subtilis VKPMB-8611 = assay: Sensitivity to antibiotics, delay zones of culture growth; assay type: cell-based, Bacillus subtilis; conditions: strain B. subtilis VKPMB-8611
[1] = tested on: B. licheniformis VKPM B-8610; assay: as above; assay type: cell-based, Bacillus licheniformis; conditions: strain B. licheniformis VKPM B-8610

NCC[C@H](O)C(=O)N[C@@H]1C[C@H](N)[C@@H](O[C@H]2O[C@H](CN)[C@@H](O)[C@H](O)[C@H]2O)[C@H](O)[C@H]1O[C@H]1O[C@H](CO)[C@@H](O)[C@H](N)[C@H]1O [Amicacin]
Diameter of delay zones of cultures growth (B. subtilis VKPMB-8611): 22 ± 0.3 mm
Diameter of delay zones of cultures growth [1]: 17 + 0.2 mm

CC1(C)S[C@@H]2[C@H](NC(=O)[C@H](N)c3ccc(O)cc3)C(=O)N2[C@H]1C(=O)O [Amoscipillin]
Diameter of delay zones of cultures growth (B. subtilis VKPMB-8611): 19 ± 0.2 mm
Diameter of delay zones of cultures growth [1]: 16 + 0.1 mm

CC1(C)S[C@@H]2[C@H](NC(=O)[C@H](N)c3ccccc3)C(=O)N2[C@H]1C(=O)O [Ampicillin]
Diameter of delay zones of cultures growth (B. subtilis VKPMB-8611): 11 ± 0.2 mm
Diameter of delay zones of cultures growth [1]: 0 mm

CC1(C)S[C@@H]2[C@H](NC(=O)[C@H](NC(=O)N3CCNC3=O)c3ccccc3)C(=O)N2[C@H]1C(=O)O [Azlocillin]
Diameter of delay zones of cultures growth (B. subtilis VKPMB-8611): 19 ± 0.1 mm
Diameter of delay zones of cultures growth [1]: 16 + 0.1 mm

CC1(C)S[C@@H]2[C@H](NC(=O)Cc3ccccc3)C(=O)N2[C@H]1C(=O)O [Benzylpenicillin]
Diameter of delay zones of cultures growth (B. subtilis VKPMB-8611): 7 ± 0.1 mm
Diameter of delay zones of cultures growth [1]: 3 ± 0.2 mm

CC1(C)S[C@@H]2[C@H](NC(=O)C(C(=O)O)c3ccccc3)C(=O)N2[C@H]1C(=O)O (stereo partly drawn) [Carbenicillin]
Diameter of delay zones of cultures growth (B. subtilis VKPMB-8611): 23 ± 0.5 mm
Diameter of delay zones of cultures growth [1]: 20 + 0.1 mm

Cn1nnnc1SCC1=C(C(=O)O)N2C(=O)[C@@H](NC(=O)[C@H](O)c3ccccc3)[C@H]2SC1 [Cefamandole]
Diameter of delay zones of cultures growth (B. subtilis VKPMB-8611): 35 ± 0.3 mm
Diameter of delay zones of cultures growth [1]: 15 + 0.1 mm

Cc1nnc(SCC2=C(C(=O)O)N3C(=O)[C@@H](NC(=O)Cn4cnnn4)[C@H]3SC2)s1 [Cefazolin]
Diameter of delay zones of cultures growth (B. subtilis VKPMB-8611): 25 ± 0.2 mm
Diameter of delay zones of cultures growth [1]: 19 + 0.2 mm

CCN1CCN(C(=O)N[C@@H](C(=O)N[C@@H]2C(=O)N3C(C(=O)O)=C(CSc4nnnn4C)CS[C@H]23)c2ccc(O)cc2)C(=O)C1=O [Cefoperazone]
Diameter of delay zones of cultures growth (B. subtilis VKPMB-8611): 15 ± 0.2 mm
Diameter of delay zones of cultures growth [1]: 13 + 0.1 mm

CO/N=C(\C(=O)N[C@@H]1C(=O)N2C(C(=O)O)=C(COC(C)=O)CS[C@H]12)c1csc(N)n1 [Cefotaxime]
Diameter of delay zones of cultures growth (B. subtilis VKPMB-8611): 15 ± 0.1 mm
Diameter of delay zones of cultures growth [1]: 9 + 0.1 mm

CO[C@@]1(NC(=O)Cc2cccs2)C(=O)N2C(C(=O)O)=C(COC(N)=O)CS[C@@H]21 [Cefoxitin]
Diameter of delay zones of cultures growth (B. subtilis VKPMB-8611): 18 ± 0.1 mm
Diameter of delay zones of cultures growth [1]: 13 + 0.1 mm

CC(C)(O/N=C(\C(=O)N[C@@H]1C(=O)N2C(C(=O)[O-])=C(C[n+]3ccccc3)CS[C@H]12)c1csc(N)n1)C(=O)O [Ceftazidime]
Diameter of delay zones of cultures growth (B. subtilis VKPMB-8611): 6 ± 0.3 mm
Diameter of delay zones of cultures growth [1]: 13 + 02 mm

CO/N=C(\C(=O)N[C@@H]1C(=O)N2C(C(=O)O)=CCS[C@H]12)c1csc(N)n1 [Ceftizoxime]
Diameter of delay zones of cultures growth (B. subtilis VKPMB-8611): 3 ± 0.1 mm
Diameter of delay zones of cultures growth [1]: 11 ± 0.1 mm

CO/N=C(\C(=O)N[C@@H]1C(=O)N2C(C(=O)O)=C(CSc3nc(=O)c(=O)[nH]n3C)CS[C@H]12)c1csc(N)n1 [Ceftriaxone]
Diameter of delay zones of cultures growth (B. subtilis VKPMB-8611): 20 + 0.4 mm
Diameter of delay zones of cultures growth [1]: 12 + 02 mm

CO/N=C(\C(=O)N[C@@H]1C(=O)N2C(C(=O)O)=C(COC(N)=O)CS[C@H]12)c1ccco1 [Cefuroxime]
Diameter of delay zones of cultures growth (B. subtilis VKPMB-8611): 2 ± 0.1 mm
Diameter of delay zones of cultures growth [1]: 3 ± 0.1 mm

CC(=O)OCC1=C(C(=O)O)N2C(=O)[C@@H](NC(=O)Cc3cccs3)[C@H]2SC1 [Cephalothin]
Diameter of delay zones of cultures growth (B. subtilis VKPMB-8611): 35 ± 0.1 mm
Diameter of delay zones of cultures growth [1]: 21 + 0.3 mm

O=C(N[C@H](CO)[C@H](O)c1ccc([N+](=O)[O-])cc1)C(Cl)Cl [Chloramphenicol]
Diameter of delay zones of cultures growth (B. subtilis VKPMB-8611): 18 ± 0.3 mm
Diameter of delay zones of cultures growth [1]: 10 ± 0.1 mm

CCC[C@@H]1C[C@@H](C(=O)N[C@@H]([C@H]2O[C@H](SC)[C@H](O)[C@@H](O)[C@H]2O)[C@H](C)Cl)N(C)C1 [Clindamycin]
Diameter of delay zones of cultures growth (B. subtilis VKPMB-8611): 9 + 0.2 mm
Diameter of delay zones of cultures growth [1]: 12 + 0.1 mm

C[C@@H](O)[C@H]1C(=O)N2C(C(=O)O)=C(SCCN=CN)C[C@H]12 [Imipenems]
Diameter of delay zones of cultures growth (B. subtilis VKPMB-8611): 38 ± 0.2 mm
Diameter of delay zones of cultures growth [1]: 30 + 0.1 mm

NC[C@H]1O[C@H](O[C@H]2[C@H](O)[C@@H](O[C@H]3O[C@H](CO)[C@@H](O)[C@H](N)[C@H]3O)[C@H](N)C[C@@H]2N)[C@H](O)[C@@H](O)[C@@H]1O [Kanamycin]
Diameter of delay zones of cultures growth (B. subtilis VKPMB-8611): 22 ± 0.2 mm
Diameter of delay zones of cultures growth [1]: 21 + 0.1 mm

COc1cccc(OC)c1C(=O)N[C@@H]1C(=O)N2[C@@H]1SC(C)(C)[C@@H]2C(=O)O [Methicillin]
Diameter of delay zones of cultures growth (B. subtilis VKPMB-8611): 20 ± 0.1 mm
Diameter of delay zones of cultures growth [1]: 10 ± 0D

CC1(C)S[C@@H]2[C@H](NC(=O)[C@H](NC(=O)N3CCN(S(C)(=O)=O)C3=O)c3ccccc3)C(=O)N2[C@H]1C(=O)O [Mezlocillin]
Diameter of delay zones of cultures growth (B. subtilis VKPMB-8611): 21 ± 0.2 mm
Diameter of delay zones of cultures growth [1]: 15 + 0.2 mm

CO[C@@]1(NC(=O)C(C(=O)O)c2ccc(O)cc2)C(=O)N2C(C(=O)O)=C(CSc3nnnn3C)CO[C@@H]21 (stereo partly drawn) [Mocsalactam]
Diameter of delay zones of cultures growth [1]: 12 + 03 mm

CCn1cc(C(=O)O)c(=O)c2ccc(C)nc21 [Nalidixic acid]
Diameter of delay zones of cultures growth (B. subtilis VKPMB-8611): 21 ± 0.1 mm
Diameter of delay zones of cultures growth [1]: 15 + 0.1 mm

O=C1CN(/N=C/c2ccc([N+](=O)[O-])o2)C(=O)N1 [Nitrofurantoin]
Diameter of delay zones of cultures growth (B. subtilis VKPMB-8611): 15 + 0.2 mm
Diameter of delay zones of cultures growth [1]: 20 + 0.1 mm

CCn1cc(C(=O)O)c(=O)c2cc(F)c(N3CCNCC3)cc21 [Norfloxacin]
Diameter of delay zones of cultures growth (B. subtilis VKPMB-8611): 24 ± 0.2 mm
Diameter of delay zones of cultures growth [1]: 25 + 0.2 mm

Cc1onc(-c2ccccc2)c1C(=O)N[C@@H]1C(=O)N2[C@@H]1SC(C)(C)[C@@H]2C(=O)O [Oxacillin]
Diameter of delay zones of cultures growth (B. subtilis VKPMB-8611): 15 ± 0.3 mm
Diameter of delay zones of cultures growth [1]: 11 + 0.1 mm

CCN1CCN(C(=O)N[C@@H](C(=O)N[C@@H]2C(=O)N3[C@@H]2SC(C)(C)[C@@H]3C(=O)O)c2ccccc2)C(=O)C1=O [Piperacillin]
Diameter of delay zones of cultures growth (B. subtilis VKPMB-8611): 15 + 03 mm
Diameter of delay zones of cultures growth [1]: 11 + 0.1 mm

CN(C)[C@@H]1C(O)=C(C(N)=O)C(=O)[C@@]2(O)C(O)=C3C(=O)c4c(O)cccc4[C@@](C)(O)[C@H]3C[C@@H]12 [Tetracycline]
Diameter of delay zones of cultures growth (B. subtilis VKPMB-8611): 26 + 0.1 mm
Diameter of delay zones of cultures growth [1]: 24 + 0.1 mm

CC1(C)S[C@@H]2[C@H](NC(=O)[C@H](C(=O)O)c3ccsc3)C(=O)N2[C@H]1C(=O)O [Ticarcillin]
Diameter of delay zones of cultures growth (B. subtilis VKPMB-8611): 25 ± 0.4 mm
Diameter of delay zones of cultures growth [1]: 21 + 0.2 mm

NC[C@H]1O[C@H](O[C@H]2[C@H](O)[C@@H](O[C@H]3O[C@H](CO)[C@@H](O)[C@H](N)[C@H]3O)[C@H](N)C[C@@H]2N)[C@H](N)C[C@@H]1O [Tobramycin]
Diameter of delay zones of cultures growth (B. subtilis VKPMB-8611): 25 ± 0.1 mm
Diameter of delay zones of cultures growth [1]: 20 + 0.2 mm

COc1cc(Cc2cnc(N)nc2N)cc(OC)c1OC [Ttrimethoprim]
Diameter of delay zones of cultures growth (B. subtilis VKPMB-8611): 23 ± 0.1 mm
Diameter of delay zones of cultures growth [1]: 25 + 0.2 mm

CN[C@H](CC(C)C)C(=O)N[C@H]1C(=O)N[C@@H](CC(N)=O)C(=O)N[C@H]2C(=O)N[C@H]3C(=O)N[C@H](C(=O)N[C@H](C(=O)O)c4cc(O)cc(O)c4-c4cc3ccc4O)[C@H](O)c3ccc(c(Cl)c3)Oc3cc2cc(c3O[C@@H]2O[C@H](CO)[C@@H](O)[C@H](O)[C@H]2O[C@H]2C[C@](C)(N)[C@H](O)[C@H](C)O2)Oc2ccc(cc2Cl)[C@H]1O [Vancomycin]
Diameter of delay zones of cultures growth (B. subtilis VKPMB-8611): 12 ± 0.1 mm
Diameter of delay zones of cultures growth [1]: 10 ± 0.1 mm

Gentamicin
Diameter of delay zones of cultures growth (B. subtilis VKPMB-8611): 25 ± 0.3 mm
Diameter of delay zones of cultures growth [1]: 19 + 0.2 mm

Polymyxin E
Diameter of delay zones of cultures growth (B. subtilis VKPMB-8611): 11 + 0.1 mm
Diameter of delay zones of cultures growth [1]: 10 + 0.2 mm

— patent US8414878B2, “Irilis biopreparation based on bacillus-strain bacteria, bacillus subtilis and bacillus licheniformis contained therein” (priority 2005, dated 2013)
